From patent US20050197350A1, “Novel quinoline, tetrahydroquinazoline, and pyrimidine derivatives and methods of treatment related to the use thereof” (TAISHO PHARMACEUTICAL CO., LTD., priority 2003, published 2005) come the findings set out here.

In the first assay the test system is MCH receptors. The assay is described as follows: MCH receptor activity class (method not given).
Conditions: not given
For the molecule `COc1cc(CNC(=O)[C@H]2CC[C@@H](Nc3nc(C)cc(N(C)C)n3)CC2)cc(OC)c1` [Example 2576, cis-N-(3,5-dimethoxybenzyl)-4-{[4-(dimethylamino)-6-methylpyrimidin-2-yl]amino}cyclohexanecarboxamide], the class is listed as 1.
Same read-out and setting: next, `COc1cccc(CNC(=O)[C@H]2CC[C@@H](Nc3nc(C)cc(N(C)C)n3)CC2)c1` [Example 2579, cis-4-{[4-(dimethylamino)-6-methylpyrimidin-2-yl]amino}-N-(3-methoxybenzyl)cyclohexanecarboxamide]: 1.

The assay is the same for the next values; noted with them: MCH receptor activity class 1-3 (percent of control at 10^-7 M or IC50).
In the case of `Cc1cc([N+](=O)[O-])ccc1NC(=S)N[C@H]1CC[C@@H](Nc2nccc(N(C)C)n2)CC1` [compound 2336], the class is given as 3 (Class 3 The value of percent of control at 10^−7 M was more than 60% or the value of IC50 was more than 200 nM.).

The assay is the same for the next values; noted with them: MCH receptor; class by percent of control at 10^-7 M or IC50.
Regarding `CN(C)c1nc(N[C@H]2CC[C@@H](NC(=S)Nc3ccccc3Cl)CC2)nc2c1CCCC2` [compound 1964], the class was 3 (Class 3 The value of percent of control at 10^−7 M was more than 60% or the value of IC50 was more than 200 nM.).
Same read-out and setting: next, `CN(C)c1cc(N[C@H]2CC[C@@H](CNC(=O)c3cccc(C#N)c3)CC2)nc2ccccc12` [compound 156]: 3 (Class 3 The value of percent of control at 10^−7 M was more than 60% or the value of IC50 was more than 200 nM.).
Still for that read-out and setting: then `CN(C)c1nc(N[C@H]2CC[C@@H](NC(=O)NC3CCCC3)CC2)nc2c1CCCC2` [compound 1907], with 3 (Class 3 The value of percent of control at 10^−7 M was more than 60% or the value of IC50 was more than 200 nM.).
Still for that read-out and setting: then `CN(C)c1nc(N[C@H]2CC[C@@H](NC(=S)Nc3ccc(Sc4ccc([N+](=O)[O-])cc4)cc3)CC2)nc2c1CCCC2` [compound 2050], with 3 (Class 3 The value of percent of control at 10^−7 M was more than 60% or the value of IC50 was more than 200 nM.); and `CN(C)c1nc(N[C@H]2CC[C@@H](NC(=S)Nc3ccccc3)CC2)nc2c1CCCC2` [compound 1955], with 3 (Class 3 The value of percent of control at 10^−7 M was more than 60% or the value of IC50 was more than 200 nM.); and `CN(C)c1nc(N[C@H]2CC[C@@H](NC(=S)NCc3ccc(Cl)c(Cl)c3)CC2)nc2c1CCCC2` [compound 2005], with 3 (Class 3 The value of percent of control at 10^−7 M was more than 60% or the value of IC50 was more than 200 nM.).

Still in this assay, the particulars now being: activity class 1-3: percent of control at 10^-7 M or IC50.
For `C=CCOC(=O)N[C@H]1CC[C@@H](Nc2nccc(N(C)C)n2)CC1` [compound 1630], the class is reported as 3 (Class 3 The value of percent of control at 10^−7 M was more than 60% or the value of IC50 was more than 200 nM.).
The same measure, in the same setting: next, `CN(C)c1nc(N[C@H]2CC[C@@H](NC(=O)OCC(C)(C)C)CC2)nc2c1CCCC2` [compound 1580]: 3 (Class 3 The value of percent of control at 10^−7 M was more than 60% or the value of IC50 was more than 200 nM.).

The assay is the same for the next values; noted with them: activity class per percent of control at 10^-7 M or IC50.
As to `COc1ccc(Br)cc1CNC[C@H]1CC[C@@H](Nc2cc(N(C)C)c3ccccc3n2)CC1` [compound 1145], the class was 3 (Class 3 The value of percent of control at 10^−7 M was more than 60% or the value of IC50 was more than 200 nM.).
Turning to `CN(C)c1nc(N[C@H]2CC[C@@H](CNC(=O)C3c4ccccc4Oc4ccccc43)CC2)nc2c1CCCC2` [compound 1083], the class was 3 (Class 3 The value of percent of control at 10^−7 M was more than 60% or the value of IC50 was more than 200 nM.).
As to `CN(C)c1nc(N[C@H]2CC[C@@H](NC(=O)c3cc(C(C)(C)C)c(O)c(C(C)(C)C)c3)CC2)nc2c1CCCC2` [compound 1060], the class is 3 (Class 3 The value of percent of control at 10^−7 M was more than 60% or the value of IC50 was more than 200 nM.).

The assay is the same for the next values; noted with them: class 1-3 by percent of control at 10^-7 M or IC50.
In the case of `CN(C)c1nc(N[C@H]2CC[C@@H](NC(=O)c3ccccc3)CC2)nc2c1CCCC2` [compound 529, N-(cis-4-{[4-(dimethylamino)-5,6,7,8-tetrahydroquinazolin-2-yl]amino}cyclohexyl)benzamide], the class is reported as 2 (Class 2: The value of percent of control at 10^−7 M was from 40% to 60% or the value of IC′50 was from 50 nM to 200 nM.).
On the same count and under the same terms, next, `CN(C)c1nc(N[C@H]2CC[C@@H](NC(=O)c3cccc(C#N)c3)CC2)nc2c1CCCC2` [compound 465]: 1 (Class 1: The value of percent of control at 10^−7 M was less than 40% or the value of IC50 was less than 50 nM.); `CN(C)c1ccnc(N[C@H]2CC[C@@H](CNC(=O)c3cc(C(C)(C)C)nn3Cc3ccccc3)CC2)n1` [compound 430]: 3 (Class 3 The value of percent of control at 10^−7 M was more than 60% or the value of IC50 was more than 200 nM.); `COc1cc(C(=O)N[C@H]2CC[C@@H](Nc3nc4c(c(N(C)C)n3)CCCC4)CC2)cc(OC)c1OC` [compound 551]: 3 (Class 3 The value of percent of control at 10^−7 M was more than 60% or the value of IC50 was more than 200 nM.).

The assay is the same for the next values; noted with them: class by percent of control at 10^-7 M or IC50.
On to `COc1ccc(C)cc1NC(=S)N[C@H]1CC[C@@H](Nc2nc3c(c(N(C)C)n2)CCCC3)CC1` [compound 1750], for which the class is 2 (Class 2: The value of percent of control at 10^−7 M was from 40% to 60% or the value of IC′50 was from 50 nM to 200 nM.).
The same measure, in the same setting: then `CN(C)c1ccnc(N[C@H]2CC[C@@H](NCCc3ccc(Br)cc3)CC2)n1` [compound 1513], with 3 (Class 3 The value of percent of control at 10^−7 M was more than 60% or the value of IC50 was more than 200 nM.); and `COc1cc(CN[C@H]2CC[C@@H](Nc3nc4c(c(N(C)C)n3)CCCC4)CC2)cc(I)c1O` [compound 1343], with 2 (Class 2: The value of percent of control at 10^−7 M was from 40% to 60% or the value of IC′50 was from 50 nM to 200 nM.); and `Cc1ccc(C(=O)CC(C(=O)N[C@H]2CC[C@@H](Nc3cc(N(C)C)c4ccccc4n3)CC2)c2cn(C)c3ccccc23)cc1` (relative stereo) [compound 722], with 3 (Class 3 The value of percent of control at 10^−7 M was more than 60% or the value of IC50 was more than 200 nM.).
As to `Cc1cc(CN[C@H]2CC[C@@H](Nc3nc4c(c(N(C)C)n3)CCCC4)CC2)c(C)n1-c1ccccc1` [compound 1351], the class is on record as 3 (Class 3 The value of percent of control at 10^−7 M was more than 60% or the value of IC50 was more than 200 nM.).
The same measure, in the same setting: then `CN(C)c1nc(N[C@H]2CC[C@@H](CNC(=O)c3cc(Cl)sc3Cl)CC2)nc2c1CCCC2` [compound 645], with 3 (Class 3 The value of percent of control at 10^−7 M was more than 60% or the value of IC50 was more than 200 nM.); and `COc1ccc2c(c1)C(CC(=O)N[C@H]1CC[C@@H](Nc3cc(N(C)C)c4ccccc4n3)CC1)CC2=O` (relative stereo) [compound 713], with 3 (Class 3 The value of percent of control at 10^−7 M was more than 60% or the value of IC50 was more than 200 nM.).
The same measure, in the same setting: then `COc1cccc(CNC[C@H]2CC[C@@H](Nc3nc4c(c(N(C)C)n3)CCCC4)CC2)c1OC` [compound 1418], with 3 (Class 3 The value of percent of control at 10^−7 M was more than 60% or the value of IC50 was more than 200 nM.); and `CN(C)c1ccnc(N[C@H]2CC[C@@H](CNC(=O)OCc3ccc([N+](=O)[O-])cc3)CC2)n1` [compound 401], with 3 (Class 3 The value of percent of control at 10^−7 M was more than 60% or the value of IC50 was more than 200 nM.).
The same measure, in the same setting: then `CN(C)c1cc(N[C@H]2CC[C@@H](NC(=O)Cc3c[nH]c4ccccc34)CC2)nc2ccccc12` [compound 711, N-(cis-4-{[4-(dimethylamino)quinolin-2-yl]amino}cyclohexyl)-2-(1H-indol-3-yl)acetamide], with 1 (Class 1: The value of percent of control at 10^−7 M was less than 40% or the value of IC50 was less than 50 nM.).
Regarding `CN(C)c1cc(N[C@H]2CC[C@@H](NC(=O)Nc3ccccc3I)CC2)nc2ccccc12` [compound 2108], the class is 3 (Class 3 The value of percent of control at 10^−7 M was more than 60% or the value of IC50 was more than 200 nM.).

The same assay, now with this note: class by percent of control at 10^−7 M or IC50.
Consider `Cc1cc(N(C)C)nc(N[C@H]2CC[C@@H](NC(=O)C(C)(C)c3ccc(Cl)cc3)CC2)n1` [compound 2949, 2-(4-chlorophenyl)-N-(cis-4-{[4-(dimethylamino)-6-methylpyrimidin-2-yl]amino}cyclohexyl)-2-methylpropanamide], for which the class was 1 (Class 1: The value of percent of control at 10^−7 M was less than 40% or the value of IC50 was less than 50 nM.).
On the same count and under the same terms, next, `Cc1cc(N(C)C)nc(N[C@H]2CC[C@@H](C(=O)N[C@H](C)c3ccc(F)cc3)CC2)n1` [compound 2804]: 2 (Class 2: The value of percent of control at 10^−7 M was from 40% to 60% or the value of IC′50 was from 50 nM to 200 nM.).
The same measure, in the same setting: then `CCc1cccc(C(=O)N[C@H]2CC[C@@H](Nc3ncc(C)c(N(C)C)n3)CC2)c1` [compound 2925, N-(cis-4-{[4-(dimethylamino)-5-methylpyrimidin-2-yl]amino}cyclohexyl)-3-ethylbenzamide], with 1 (Class 1: The value of percent of control at 10^−7 M was less than 40% or the value of IC50 was less than 50 nM.); and `Cc1cnc(NC[C@H]2CC[C@@H](NC(=O)c3ccc(C(F)(F)F)cc3)CC2)nc1N(C)C` [compound 2720], with 3 (Class 3 The value of percent of control at 10^−7 M was more than 60% or the value of IC50 was more than 200 nM.).
As for `Cc1nc(N[C@H]2CC[C@@H](NC(=O)c3cnccn3)CC2)nc(N(C)C)c1C` [compound 2826], the class was 3 (Class 3 The value of percent of control at 10^−7 M was more than 60% or the value of IC50 was more than 200 nM.).
With `COc1cc(CN[C@H]2CC[C@@H](Nc3ncc(C)c(N(C)C)n3)CC2)cc(OC)c1` [compound 3000], the class was 2 (Class 2: The value of percent of control at 10^−7 M was from 40% to 60% or the value of IC′50 was from 50 nM to 200 nM.).
The same measure, in the same setting: then `COc1ccc(C2(C(=O)N[C@H]3CC[C@@H](Nc4ncc(C)c(N(C)C)n4)CC3)CC2)cc1` [compound 2875], with 1 (Class 1: The value of percent of control at 10^−7 M was less than 40% or the value of IC50 was less than 50 nM.).
